{
  "source": "ChEMBL document CHEMBL5465560",
  "about": "“Selectivity Literature for EUbOPEN Chemogenomic Library” (2024)",
  "key": {"[1]": {"target": "Ribosomal protein S6 kinase alpha-6 (Homo sapiens, UniProt Q9UK32)", "experiment": "Selectivity interaction (Kinase panel (Eurofins, enzymatic assay)) EUB0000311b RPS6KA6"}, "[2]": {"target": "Serine/threonine-protein kinase 26 (Homo sapiens, UniProt Q9P289)", "sequence (Q9P289 2-416 limits assumed)": "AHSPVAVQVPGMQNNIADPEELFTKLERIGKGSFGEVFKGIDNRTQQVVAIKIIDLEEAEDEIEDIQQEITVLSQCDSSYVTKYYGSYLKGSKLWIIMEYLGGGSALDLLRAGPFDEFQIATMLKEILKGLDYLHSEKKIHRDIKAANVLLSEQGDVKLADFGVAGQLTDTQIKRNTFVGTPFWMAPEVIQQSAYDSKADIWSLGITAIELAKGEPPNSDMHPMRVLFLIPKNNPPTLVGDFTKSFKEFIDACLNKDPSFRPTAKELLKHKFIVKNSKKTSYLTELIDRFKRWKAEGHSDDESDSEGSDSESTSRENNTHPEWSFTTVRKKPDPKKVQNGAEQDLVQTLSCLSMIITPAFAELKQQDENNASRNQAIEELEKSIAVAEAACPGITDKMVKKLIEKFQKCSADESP", "experiment": "Selectivity interaction (Kinase panel (DSF assay)) EUB0001559a STK26"}, "[3]": {"target": "Cyclin-dependent kinase 18 (Homo sapiens) (UniProt Q07002)", "sequence (Q07002 whole entry)": "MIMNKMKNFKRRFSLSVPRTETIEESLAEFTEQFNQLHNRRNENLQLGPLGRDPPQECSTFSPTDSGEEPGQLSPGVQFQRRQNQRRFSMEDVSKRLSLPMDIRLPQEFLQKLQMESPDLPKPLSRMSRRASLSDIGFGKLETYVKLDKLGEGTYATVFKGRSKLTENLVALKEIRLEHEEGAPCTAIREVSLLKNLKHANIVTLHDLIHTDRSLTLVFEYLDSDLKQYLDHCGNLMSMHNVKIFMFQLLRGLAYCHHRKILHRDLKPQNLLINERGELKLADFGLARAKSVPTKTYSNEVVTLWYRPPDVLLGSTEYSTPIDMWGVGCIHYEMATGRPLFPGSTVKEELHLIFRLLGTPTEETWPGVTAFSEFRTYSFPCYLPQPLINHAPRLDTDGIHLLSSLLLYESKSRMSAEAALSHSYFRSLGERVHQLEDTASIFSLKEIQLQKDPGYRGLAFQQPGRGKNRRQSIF", "experiment": "Selectivity interaction (KinomeScan (DiscoverX)) EUB0000045b CDK18"}, "[4]": {"target": "Muscarinic acetylcholine receptor M3 (Homo sapiens, UniProt P20309)", "experiment": "Selectivity interaction (GPCR panel (PDSP screen)) EUB0001079a CHRM3", "details": "at 10 µM"}, "[5]": {"target": "T1, Calcium/calmodulin-dependent protein kinase type IV (Homo sapiens) (UniProt Q16566)", "T1 sequence (whole entry)": "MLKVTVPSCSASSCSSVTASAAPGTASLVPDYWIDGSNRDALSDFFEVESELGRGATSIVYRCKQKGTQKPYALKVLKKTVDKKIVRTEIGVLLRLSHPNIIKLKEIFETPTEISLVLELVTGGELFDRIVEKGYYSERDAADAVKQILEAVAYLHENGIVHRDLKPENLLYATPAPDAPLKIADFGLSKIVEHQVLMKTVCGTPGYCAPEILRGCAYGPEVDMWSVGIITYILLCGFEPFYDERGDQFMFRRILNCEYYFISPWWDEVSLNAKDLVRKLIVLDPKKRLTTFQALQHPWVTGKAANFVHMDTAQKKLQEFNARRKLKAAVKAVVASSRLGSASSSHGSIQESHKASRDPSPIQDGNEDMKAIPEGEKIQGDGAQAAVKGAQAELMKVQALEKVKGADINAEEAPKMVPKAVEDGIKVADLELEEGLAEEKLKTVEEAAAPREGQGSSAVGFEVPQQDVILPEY", "experiment": "Selectivity interaction (KinomeScan (DiscoverX)) EUB0001079a CAMK4", "details": "at 1 µM"}, "[6]": {"target": "T2, Casein kinase I isoform alpha-like (Homo sapiens) (UniProt Q8N752)", "T2 sequence (whole entry)": "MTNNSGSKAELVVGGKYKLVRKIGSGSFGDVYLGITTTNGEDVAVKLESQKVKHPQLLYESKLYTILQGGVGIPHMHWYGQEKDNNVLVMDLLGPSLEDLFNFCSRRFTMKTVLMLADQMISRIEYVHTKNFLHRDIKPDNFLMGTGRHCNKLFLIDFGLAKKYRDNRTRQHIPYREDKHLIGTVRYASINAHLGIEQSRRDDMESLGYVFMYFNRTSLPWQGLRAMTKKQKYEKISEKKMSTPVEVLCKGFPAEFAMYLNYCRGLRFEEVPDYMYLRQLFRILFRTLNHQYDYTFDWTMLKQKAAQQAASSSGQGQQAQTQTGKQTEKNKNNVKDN", "experiment": "Selectivity interaction (Kinase panel (Z-LYTE Assay)) EUB0001632a CSNK1A1L", "details": "at 10 µM"}, "[7]": {"target": "Serine/threonine-protein kinase B-raf (Homo sapiens) (UniProt P15056)", "sequence (P15056 whole entry)": "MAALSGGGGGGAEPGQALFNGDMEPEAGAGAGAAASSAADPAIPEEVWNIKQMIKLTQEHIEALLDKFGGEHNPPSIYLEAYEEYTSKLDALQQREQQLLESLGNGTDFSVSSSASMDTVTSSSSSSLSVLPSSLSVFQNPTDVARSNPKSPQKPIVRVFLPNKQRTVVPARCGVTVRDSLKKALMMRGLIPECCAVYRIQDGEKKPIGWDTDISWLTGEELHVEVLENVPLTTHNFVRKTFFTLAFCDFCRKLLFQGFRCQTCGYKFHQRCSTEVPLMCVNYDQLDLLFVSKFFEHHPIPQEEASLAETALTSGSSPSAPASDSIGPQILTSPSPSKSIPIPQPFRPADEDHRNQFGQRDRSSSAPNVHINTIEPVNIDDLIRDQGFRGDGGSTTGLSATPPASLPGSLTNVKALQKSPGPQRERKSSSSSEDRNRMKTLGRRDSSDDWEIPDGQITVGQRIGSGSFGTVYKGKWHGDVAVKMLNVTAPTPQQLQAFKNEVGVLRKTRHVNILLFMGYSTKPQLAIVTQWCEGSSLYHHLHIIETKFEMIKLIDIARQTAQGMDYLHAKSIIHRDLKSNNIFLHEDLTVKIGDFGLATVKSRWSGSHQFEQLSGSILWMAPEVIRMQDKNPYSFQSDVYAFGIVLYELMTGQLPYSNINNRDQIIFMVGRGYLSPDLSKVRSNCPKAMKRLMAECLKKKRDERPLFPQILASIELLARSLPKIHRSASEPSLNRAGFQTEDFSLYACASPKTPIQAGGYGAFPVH", "details": "at 10 µM"}, "[8]": {"target": "Ribosomal protein S6 kinase beta-1 (Homo sapiens, UniProt P23443)", "experiment": "Selectivity interaction (Upstate Kinase Profiler service (Millipore)) EUB0000056c RPS6KB1", "details": "at 1 µM"}, "[9]": {"target": "T3, Serine/threonine-protein kinase BRSK2 (Homo sapiens) (UniProt Q8IWQ3)", "T3 sequence (whole entry)": "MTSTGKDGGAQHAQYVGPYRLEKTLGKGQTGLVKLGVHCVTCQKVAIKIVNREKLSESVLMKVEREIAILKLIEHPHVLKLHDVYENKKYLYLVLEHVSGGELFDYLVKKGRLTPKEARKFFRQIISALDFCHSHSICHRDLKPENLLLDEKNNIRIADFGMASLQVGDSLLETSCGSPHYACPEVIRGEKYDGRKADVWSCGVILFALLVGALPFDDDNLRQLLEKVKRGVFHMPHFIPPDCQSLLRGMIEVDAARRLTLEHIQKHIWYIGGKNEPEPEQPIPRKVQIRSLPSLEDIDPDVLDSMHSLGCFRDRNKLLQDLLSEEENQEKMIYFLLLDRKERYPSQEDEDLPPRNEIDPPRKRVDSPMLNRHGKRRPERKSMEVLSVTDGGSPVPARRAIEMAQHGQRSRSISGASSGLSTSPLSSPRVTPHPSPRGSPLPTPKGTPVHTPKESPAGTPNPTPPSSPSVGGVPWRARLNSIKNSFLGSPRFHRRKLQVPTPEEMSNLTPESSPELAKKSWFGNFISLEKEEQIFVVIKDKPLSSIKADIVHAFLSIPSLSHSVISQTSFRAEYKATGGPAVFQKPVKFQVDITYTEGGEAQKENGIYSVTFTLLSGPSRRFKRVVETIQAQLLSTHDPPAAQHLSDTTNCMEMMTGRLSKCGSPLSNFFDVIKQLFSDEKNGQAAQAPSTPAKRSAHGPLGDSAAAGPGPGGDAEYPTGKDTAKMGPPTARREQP", "experiment": "Selectivity interaction (ProQinase) EUB0000171b BRSK2"}, "[10]": {"target": "Mitogen-activated protein kinase 6 (Homo sapiens) (UniProt Q16659)", "sequence (Q16659 whole entry)": "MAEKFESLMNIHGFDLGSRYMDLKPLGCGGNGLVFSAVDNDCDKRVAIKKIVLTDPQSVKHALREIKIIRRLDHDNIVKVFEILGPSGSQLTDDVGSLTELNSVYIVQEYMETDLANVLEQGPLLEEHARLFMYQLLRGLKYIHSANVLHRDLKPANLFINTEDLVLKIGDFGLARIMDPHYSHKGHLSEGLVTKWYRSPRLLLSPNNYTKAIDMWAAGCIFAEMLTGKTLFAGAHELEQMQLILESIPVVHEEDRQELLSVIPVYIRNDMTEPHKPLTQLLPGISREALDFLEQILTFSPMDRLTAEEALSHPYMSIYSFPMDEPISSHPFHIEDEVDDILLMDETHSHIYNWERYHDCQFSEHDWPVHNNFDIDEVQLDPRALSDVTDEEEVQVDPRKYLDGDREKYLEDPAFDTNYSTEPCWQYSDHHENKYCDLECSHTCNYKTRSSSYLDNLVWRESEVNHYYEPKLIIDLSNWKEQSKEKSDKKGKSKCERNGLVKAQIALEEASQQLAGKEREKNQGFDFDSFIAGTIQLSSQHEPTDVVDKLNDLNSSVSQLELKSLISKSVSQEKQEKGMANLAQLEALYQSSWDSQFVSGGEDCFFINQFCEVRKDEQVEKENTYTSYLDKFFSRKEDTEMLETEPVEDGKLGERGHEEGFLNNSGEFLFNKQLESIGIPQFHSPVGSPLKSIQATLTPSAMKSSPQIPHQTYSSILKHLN", "experiment": "Selectivity interaction (KinomeScan (DiscoverX)) EUB0001619a MAPK6", "details": "at 1 µM"}, "[11]": {"target": "T4, Serine/threonine-protein kinase Sgk1 (Homo sapiens) (UniProt O00141)", "T4 sequence (whole entry)": "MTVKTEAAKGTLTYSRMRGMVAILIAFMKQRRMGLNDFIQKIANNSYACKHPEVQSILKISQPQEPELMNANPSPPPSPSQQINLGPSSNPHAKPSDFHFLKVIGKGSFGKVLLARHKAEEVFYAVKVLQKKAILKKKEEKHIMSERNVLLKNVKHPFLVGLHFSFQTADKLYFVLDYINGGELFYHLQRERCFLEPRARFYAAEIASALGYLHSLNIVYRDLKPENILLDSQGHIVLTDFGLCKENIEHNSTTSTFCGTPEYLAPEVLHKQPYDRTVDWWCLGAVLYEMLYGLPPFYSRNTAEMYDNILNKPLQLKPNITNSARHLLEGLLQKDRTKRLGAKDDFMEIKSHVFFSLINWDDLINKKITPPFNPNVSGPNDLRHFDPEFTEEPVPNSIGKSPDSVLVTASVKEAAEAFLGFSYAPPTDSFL", "experiment": "Selectivity interaction (Kinase panel (literature)) EUB0001199aCl SGK1", "details": "at 1 µM"}, "[12]": {"target": "Serine/threonine-protein kinase MARK2 (Homo sapiens) (UniProt Q7KZI7)", "sequence (Q7KZI7 whole entry)": "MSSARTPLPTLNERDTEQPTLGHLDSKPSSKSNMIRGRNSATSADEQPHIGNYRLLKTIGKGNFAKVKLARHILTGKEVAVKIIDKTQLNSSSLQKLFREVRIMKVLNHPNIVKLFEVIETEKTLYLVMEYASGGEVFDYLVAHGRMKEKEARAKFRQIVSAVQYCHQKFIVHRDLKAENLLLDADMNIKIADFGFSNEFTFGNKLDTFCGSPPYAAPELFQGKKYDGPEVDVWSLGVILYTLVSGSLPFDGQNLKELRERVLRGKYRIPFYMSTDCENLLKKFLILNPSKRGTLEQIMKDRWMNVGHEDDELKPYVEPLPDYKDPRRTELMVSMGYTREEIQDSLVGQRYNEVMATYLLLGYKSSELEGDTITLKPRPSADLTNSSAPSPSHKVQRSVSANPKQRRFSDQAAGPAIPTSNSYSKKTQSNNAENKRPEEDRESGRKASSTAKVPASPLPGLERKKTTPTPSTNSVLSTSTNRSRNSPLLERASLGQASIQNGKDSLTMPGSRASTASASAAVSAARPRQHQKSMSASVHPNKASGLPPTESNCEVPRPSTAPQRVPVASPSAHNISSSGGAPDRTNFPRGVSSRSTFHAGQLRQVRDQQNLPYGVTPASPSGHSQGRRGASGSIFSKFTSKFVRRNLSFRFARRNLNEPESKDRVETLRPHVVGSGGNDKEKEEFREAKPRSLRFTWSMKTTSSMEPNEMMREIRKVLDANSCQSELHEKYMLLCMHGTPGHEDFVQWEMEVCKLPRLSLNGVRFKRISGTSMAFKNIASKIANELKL", "experiment": "Selectivity interaction (ActivX KiNativ screen (kinase selectivity in THP-1 cell lysates)) EUB0000639a MARK2", "type": "subcellular", "details": "lysate, at 0.01 µM"}, "[13]": {"target": "Ribosomal protein S6 kinase alpha-1 (Homo sapiens, UniProt Q15418)", "sequence (Q15418 whole entry)": "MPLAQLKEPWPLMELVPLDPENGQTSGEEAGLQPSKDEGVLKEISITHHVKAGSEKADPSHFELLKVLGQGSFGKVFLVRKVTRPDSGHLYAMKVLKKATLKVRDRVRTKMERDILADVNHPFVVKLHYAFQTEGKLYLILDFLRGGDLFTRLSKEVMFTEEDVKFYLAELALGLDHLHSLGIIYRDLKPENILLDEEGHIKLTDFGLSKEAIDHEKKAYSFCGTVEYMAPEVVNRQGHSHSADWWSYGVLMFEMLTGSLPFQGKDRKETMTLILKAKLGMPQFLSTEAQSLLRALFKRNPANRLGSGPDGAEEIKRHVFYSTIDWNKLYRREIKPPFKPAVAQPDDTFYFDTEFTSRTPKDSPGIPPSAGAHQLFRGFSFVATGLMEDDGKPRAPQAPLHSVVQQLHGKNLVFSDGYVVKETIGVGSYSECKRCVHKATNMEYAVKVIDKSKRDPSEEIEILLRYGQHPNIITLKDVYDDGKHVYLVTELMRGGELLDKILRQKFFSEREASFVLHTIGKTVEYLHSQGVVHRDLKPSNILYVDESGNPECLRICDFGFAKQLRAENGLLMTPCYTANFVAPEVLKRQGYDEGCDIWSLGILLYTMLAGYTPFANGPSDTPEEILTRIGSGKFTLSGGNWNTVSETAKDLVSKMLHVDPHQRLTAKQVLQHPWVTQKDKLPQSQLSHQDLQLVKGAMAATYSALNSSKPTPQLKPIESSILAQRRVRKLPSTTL", "experiment": "Selectivity interaction (KinomeScan (DiscoverX)) EUB0000092b RPS6KA1", "details": "at 10 µM"}, "[14]": {"target": "Bone morphogenetic protein receptor type-1B (Homo sapiens, UniProt O00238)", "experiment": "Selectivity interaction (KinomeScan (DiscoverX)) EUB0000092b BMPR1B", "details": "at 10 µM"}, "[15]": {"target": "Angiopoietin-1 receptor (Homo sapiens) (UniProt Q02763)", "sequence (Q02763 whole entry)": "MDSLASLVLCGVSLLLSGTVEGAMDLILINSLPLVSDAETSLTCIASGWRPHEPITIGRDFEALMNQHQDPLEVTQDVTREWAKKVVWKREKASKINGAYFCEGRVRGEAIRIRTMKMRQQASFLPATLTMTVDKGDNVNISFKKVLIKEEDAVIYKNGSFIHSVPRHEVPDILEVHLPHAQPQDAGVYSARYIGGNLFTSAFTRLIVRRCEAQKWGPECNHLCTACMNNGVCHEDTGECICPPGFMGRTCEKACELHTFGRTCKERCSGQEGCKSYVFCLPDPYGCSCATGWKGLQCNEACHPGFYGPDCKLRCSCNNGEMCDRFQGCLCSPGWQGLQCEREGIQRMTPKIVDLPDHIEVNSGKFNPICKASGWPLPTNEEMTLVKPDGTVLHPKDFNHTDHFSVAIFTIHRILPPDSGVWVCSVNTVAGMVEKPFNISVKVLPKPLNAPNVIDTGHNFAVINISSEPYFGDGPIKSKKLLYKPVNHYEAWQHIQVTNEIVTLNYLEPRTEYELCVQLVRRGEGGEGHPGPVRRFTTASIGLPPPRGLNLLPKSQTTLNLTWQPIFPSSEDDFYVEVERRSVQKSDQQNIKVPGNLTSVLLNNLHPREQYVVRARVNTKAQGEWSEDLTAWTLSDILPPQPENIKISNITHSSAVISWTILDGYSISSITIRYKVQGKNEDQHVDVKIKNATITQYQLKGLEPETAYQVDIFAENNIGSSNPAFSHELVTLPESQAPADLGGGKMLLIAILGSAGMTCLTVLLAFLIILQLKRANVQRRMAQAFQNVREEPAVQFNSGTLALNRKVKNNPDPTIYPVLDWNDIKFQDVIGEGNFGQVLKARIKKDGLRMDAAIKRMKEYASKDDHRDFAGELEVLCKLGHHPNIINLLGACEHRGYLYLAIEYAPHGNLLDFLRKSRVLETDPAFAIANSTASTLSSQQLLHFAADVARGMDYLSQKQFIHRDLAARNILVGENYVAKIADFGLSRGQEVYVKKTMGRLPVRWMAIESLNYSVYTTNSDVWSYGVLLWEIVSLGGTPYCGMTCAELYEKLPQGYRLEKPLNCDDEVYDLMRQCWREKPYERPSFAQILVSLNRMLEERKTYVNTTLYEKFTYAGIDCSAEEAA", "experiment": "Selectivity interaction (Ambit KINOMEscan and KiNATiv profiling in Jurkat cells) EUB0000090b TEK", "type": "cell-based", "details": "at 1 µM"}},
  "note": "pIC50: −log10 of the molar value.",
  "data": [
    {"smiles": "CCc1ccccc1C(=O)Nc1n[nH]c2c(C)c(F)c(C3C(C#N)=C(C)N(C)C(C)=C3C#N)cc12", "note": "[BAY-3827]", "values": [
      {"measurement": "pIC50", "setting": "[1]", "result": 7.44}
    ]},
    {"smiles": "CN(C(=O)c1cnn2cccnc12)c1cc2c(cc1N1CCOCC1)C(=O)N(C[C@@H](F)C(C)(C)O)C2", "values": [
      {"measurement": "dTM", "setting": "[2]", "result": 0.5, "unit": "K"}
    ]},
    {"smiles": "C=CC(=O)Nc1cc(-n2c(=O)ccc3cnc4ccc(-c5ccc(NS(C)(=O)=O)cc5)cc4c32)ccc1C", "values": [
      {"measurement": "% of control", "setting": "[3]; at 1 µM", "result": 83, "unit": "%"},
      {"measurement": "% of control", "setting": "[3]; at 10 µM", "result": 88, "unit": "%"}
    ]},
    {"smiles": "Nc1cnc(N2CCc3cc(S(=O)(=O)Nc4c(F)cc(Cl)cc4F)cc(N4CCCC4=O)c32)nc1", "note": "[TP-020n]", "values": [
      {"measurement": "% of inhibition", "setting": "[4]", "result": -18, "unit": "%"},
      {"measurement": "% of control", "setting": "[5]", "result": 96, "unit": "%"}
    ]},
    {"smiles": "Cn1cc(-n2cnc3c(NCc4nc5cc(Cl)c(Cl)cc5[nH]4)nc(N4CCOCC4)nc32)cn1", "values": [
      {"measurement": "% of control", "setting": "[6]", "result": -0.03, "unit": "%"}
    ]},
    {"smiles": "Cc1cc([C@@H](C)Nc2ccccc2C(=O)O)c2nc(N3CCOCC3)cc(=O)n2c1", "note": "[AZD-6482]", "values": [
      {"measurement": "% of control", "setting": "[7]", "result": 100, "unit": "%"}
    ]},
    {"smiles": "Cc1ccc(-c2ccc3c(ccc4sc5c(c43)NC[C@@H](C)NC5=O)n2)cn1", "values": [
      {"measurement": "% of inhibition", "setting": "[8]", "result": 8, "unit": "%"}
    ]},
    {"smiles": "C=CC(=O)Nc1cccc(C(=O)Nc2ccc(Nc3cc(-c4[nH]c(SC)nc4C)ccn3)cc2)c1", "values": [
      {"measurement": "% of control", "setting": "[9]; at 1 µM", "result": 103, "unit": "%"},
      {"measurement": "% of control", "setting": "[9]; at 5 µM", "result": 85, "unit": "%"}
    ]},
    {"smiles": "N#Cc1cccc(-c2c[nH]c3ncnc(N4CCOCC4)c23)c1", "values": [
      {"measurement": "% of control", "setting": "[10]", "result": 100, "unit": "%"}
    ]},
    {"smiles": "CN1Cc2nccc(-c3cn(C)nc3-c3ccc(F)cc3)c2C1=O", "values": [
      {"measurement": "% of inhibition", "setting": "[11]", "result": 2, "unit": "%"}
    ]},
    {"smiles": "CC[C@@H]1[C@H](F)C(=O)N[C@@H]1COc1nccc2cc(C(N)=O)c(OC)cc12", "note": "[ZIMLOVISERTIB]", "values": [
      {"measurement": "% of inhibition", "setting": "[12]", "result": 12.7, "unit": "%"}
    ]},
    {"smiles": "CCC(=O)N1CCN(c2ccc(-n3c(=O)ccc4cnc5ccc(-c6cnc7ccccc7c6)cc5c43)cc2C(F)(F)F)CC1", "values": [
      {"measurement": "% of control", "setting": "[13]", "result": 100, "unit": "%"},
      {"measurement": "% of control", "setting": "[14]", "result": 100, "unit": "%"}
    ]},
    {"smiles": "CN(C)C/C=C/C(=O)Nc1ccc(C(=O)N2CCCC(Nc3ncc(Cl)c(-c4c[nH]c5ccccc45)n3)C2)cc1", "note": "(configuration not stated)", "values": [
      {"measurement": "% of control", "setting": "[15]", "result": 92, "unit": "%"}
    ]}
  ]
}
